The values below are quoted from earlier work in patent publication US20030175234A1, “Use of polyphenols to treat skin conditions” (priority 2002, published 2003).

Where two headings read alike, the source gives them in different places.

Data set [1] relates to Ultraviolet-B (UV-B) light ray induced leukocyte infiltration. Conditions: human skin.
Data set [2] shares this test system. As to conditions: mouse skin.

On to `O=C(O[C@@H]1Cc2c(O)cc(O)cc2O[C@@H]1c1cc(O)c(O)c(O)c1)c1cc(O)c(O)c(O)c1` [epigallocatechin gallate], for which the “block of UV-B induced leukocyte infiltration” value in data set [1] and in data set [2] was “can block” throughout.
